# Target: human α5β3γ2 receptor (α5-GABAA receptor) (Homo sapiens (Human), UniProt P18507+P31644)
# Assay: Radioligand (3H-flunitrazepam) competition binding assay, BZD site
# Settings: 3H-flunitrazepam 1 nM; HEK293 membranes expressing human α5β3γ2
# Summary of the method: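 Membranes from HEK293 cells stably expressing human α2β3γ2 or α5β3γ2 (5 μg protein/well) incubated 1 h at room temperature with 1 nM ^3H-flunitrazepam and 8-point 4-fold compound dilutions; nonspecific binding defined with 10 μM flumazenil. Filter-bound radioactivity counted; Ki derived from fitted IC50.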
row,Ki [nM],Structure (SMILES)
1,3.2,"Cc1onc(-c2ccc(F)cc2)c1COc1ccc(N2CCN3CCNC(=O)C3C2)nn1 (centres unmarked) [Compound 10, 8-(6-((3-(4-fluorophenyl)-5-methylisoxazol-4-yl)methoxy)pyridazin-3-yl) hexahydro-2H-pyrazino[1,2-a]pyrazin-1 (6H)-one]"
2,1.62,"Cc1onc(-c2ccc(F)cc2)c1COc1cnc(-c2nnc3n2CCOC3)cn1 [Compound 19, 3-(5-((3-(4-fluorophenyl)-5-methylisoxazol-4-yl)methoxy)pyrazin-2-yl)-5,6-dihydro-8H-[1,2,4]triazolo[3,4-c][1,4]oxazine]"
3,3.06,"Cc1onc(-c2ccc(F)cc2)c1COc1cnc(-c2nnc3n2CCC3)cn1 [Compound 23, 4-(((5-(6,7-dihydro-5H-pyrrolo[2,1-c][1,2,4]triazol-3-yl)pyrazin-2-yl)oxy)methyl)-3-(4-fluorophenyl)-5-methylisoxazole]"
4,6.75,"Cc1onc(-c2ccc(F)cc2)c1COc1cnc(-c2nnc3n2CCCOC3)cn1 [Compound 24, 3-(5-((3-(4-fluorophenyl)-5-methylisoxazol-4-yl)methoxy)pyrazin-2-yl)-6,7-dihydro-5H,9H-[1,2,4]triazolo[3,4-c][1,4]oxazepane]"
5,0.99,"Cc1onc(-c2ccc(F)cc2)c1COc1ccc(-c2cc3n(c(=O)n2)CCN3C)cn1 [Compound 41, 7-(6-((3-(4-fluorophenyl)-5-methylisoxazol-4-yl)methoxy)pyridin-3-yl)-1-methyl-2,3-dihydroimidazo[1,2-c]pyrimidin-5(1H)-one]"
6,2.24,Cc1onc(-c2ccc(F)cc2)c1COc1ccc(-c2cc3n(c(=O)n2)C[C@]24CO[C@H](CN32)C4)cn1 [Compound 38]
7,2.59,"Cc1onc(-c2ccc(F)cc2)c1COc1ccc(-c2nnc3n2CCOC3)cn1 [Compound 17, 3-(6-((3-(4-fluorophenyl)-5-methylisoxazol-4-yl)methoxy)pyridin-3-yl)-5,6-dihydro-8H-[1,2,4]triazolo[3,4-c][1,4]oxazine]"
8,5.37,"Cc1onc(-c2ccc(F)cc2)c1COc1ccc(N2CCn3ccnc3C2=O)nn1 [Compound 37, 7-(6-((3-(4-fluorophenyl)-5-methylisoxazol-4-yl)methoxy)pyridazin-3-yl)-6,7-dihydroimidazo[1,2-a]pyrazin-8(5H)-one]"
9,9.74,"Cc1onc(-c2ccc(F)cc2)c1COc1cnc(-c2nnc3n2CCOCC3)cn1 [Compound 33, 3-(5-((3-(4-fluorophenyl)-5-methylisoxazol-4-yl)methoxy)pyrazin-2-yl)-5,6,8,9-tetrahydro-[1,2,4]triazolo[4,3-d][1,4]oxazepane]"
10,0.32,"Cc1onc(-c2ccc(F)cc2)c1COc1ccc(-c2nnc3n2CCOC3)nn1 [Compound 18, 3-(6-((3-(4-fluorophenyl)-5-methylisoxazol-4-yl)methoxy)pyridazin-3-yl)-5,6-dihydro-8H-[1,2,4]triazolo[3,4-c][1,4]oxazine]"
11,2.14,"Cc1onc(-c2ccc(F)cc2)c1COc1ccc(-c2nnc3n2CCS(=O)(=O)C3)cn1 [Compound 7, 3-(6-((3-(4-fluorophenyl)-5-methylisoxazol-4-yl)methoxy)pyridin-3-yl)-5,6-dihydro-8H-[1,2,4]triazolo[3,4-c][1,4]thiazine 7,7-dioxide]"
